Common to all, as to format: cell-based
The target in assay [1] is T1, 17β-hydroxysteroid dehydrogenase type 1 (17β-HSD type 1) (Homo sapiens, UniProt P14061).
T1 construct: expressed in transfected cells; host or cells: MCF-7
T1 sequence (P14061 1-328): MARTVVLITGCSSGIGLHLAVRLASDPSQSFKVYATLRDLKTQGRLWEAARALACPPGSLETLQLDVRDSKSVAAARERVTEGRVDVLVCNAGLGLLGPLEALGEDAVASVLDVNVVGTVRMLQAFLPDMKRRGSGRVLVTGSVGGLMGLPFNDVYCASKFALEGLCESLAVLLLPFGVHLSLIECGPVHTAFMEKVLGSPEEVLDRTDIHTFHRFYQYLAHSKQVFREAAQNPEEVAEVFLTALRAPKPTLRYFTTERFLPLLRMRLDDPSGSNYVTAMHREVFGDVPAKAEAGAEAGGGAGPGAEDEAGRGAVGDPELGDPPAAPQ
As to the kind of experiment: Inhibition of 17β-HSD type 1 in MCF-7 cells stably expressing the isoenzyme (tritium labeled estrone conversion, HPLC). Conditions: MCF-7 cells expressing 17β-HSD type 1, 2 nM tritium labeled estrone; for inhibition at 1 µM / inhibition at 10 µM: MCF7; for inhibition at 1 µM: read-out: % Inhibition HSD1 1 μM; for inhibition at 10 µM: read-out: % Inhibition HSD1 10 μM. An excerpt: (§1) Biological Testing Materials and Methods 1. Inhibition of the 17β-hydroxysteroid dehydrocienase type 1, type 2 and type 3 enzyme
(§2) The compounds were screened in respect of 17β-HSD enzyme activity in vitro on established MCF-7 cell lines, each stably expressing one of the respective 17β-HSD isoenzymes. The interconversion of substrate by each isoenzyme and the 17β-HSD inhibiting activity of chemical compounds in these cell lines were detected by HPLC system.
(§3) Varying amounts of the test compounds were incubated in the growth medium of the 17β-HSD expressing cells together tritium labeled substrate (2 nM estrone for 17β-HSD type 1; 2 nM estradiol for 17β-HSD type 2; and 2 nM androstenedione for 17β-HSD type 3). The medium samples were removed after exact incubation time and the reaction is stopped by trichloroacetic acid (TCA). The samples were analyzed by HPLC-coupled flow scintillation analysis.
(§4) For each enzyme type, the HSD-inhibiting activity of an individual test compound was calculated by comparing the conversion of a control sample without any test compound (referred to as “Negative Control”) to the (reduced) conversion of the test sample containing the particular compound to be tested (referred to as “Test Sample”).
(§5) Two concentrations of each compound were used. The number of the compound refers to the numbers indicated in the Experimental Section.

In assay [2] the target is T2, 17β-hydroxysteroid dehydrogenase type 2 (17β-HSD type 2) (Homo sapiens, UniProt P37059).
T2 construct: expressed in transfected cells; host or cells: MCF-7
T2 sequence (P37059 1-387): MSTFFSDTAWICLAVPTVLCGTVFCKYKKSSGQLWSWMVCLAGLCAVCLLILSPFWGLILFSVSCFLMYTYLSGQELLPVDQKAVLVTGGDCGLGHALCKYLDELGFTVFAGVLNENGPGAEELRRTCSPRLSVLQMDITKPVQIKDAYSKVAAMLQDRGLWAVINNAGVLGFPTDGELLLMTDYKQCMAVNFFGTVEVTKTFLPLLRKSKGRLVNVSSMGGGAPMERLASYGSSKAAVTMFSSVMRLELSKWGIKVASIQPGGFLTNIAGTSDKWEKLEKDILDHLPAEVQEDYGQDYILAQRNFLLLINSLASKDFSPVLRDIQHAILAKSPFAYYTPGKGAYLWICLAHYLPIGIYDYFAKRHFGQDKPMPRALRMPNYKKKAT
As to the kind of experiment: Inhibition of 17β-HSD type 2 in MCF-7 cells stably expressing the isoenzyme (tritium labeled estradiol conversion, HPLC). Conditions: MCF-7 cells expressing 17β-HSD type 2, 2 nM tritium labeled estradiol; for inhibition at 1 µM / inhibition at 10 µM: MCF7; for inhibition at 1 µM: read-out: % Inhibition HSD2 1 μM; for inhibition at 10 µM: read-out: % Inhibition HSD2 10 μM.
Description: as §1, §2, §3, §4, §5

The target of assay [3] is T3, 17β-hydroxysteroid dehydrogenase type 3 (17β-HSD type 3) (Homo sapiens, UniProt P37058).
T3 construct: expressed in transfected cells; host or cells: MCF-7
T3 sequence (P37058 1-310): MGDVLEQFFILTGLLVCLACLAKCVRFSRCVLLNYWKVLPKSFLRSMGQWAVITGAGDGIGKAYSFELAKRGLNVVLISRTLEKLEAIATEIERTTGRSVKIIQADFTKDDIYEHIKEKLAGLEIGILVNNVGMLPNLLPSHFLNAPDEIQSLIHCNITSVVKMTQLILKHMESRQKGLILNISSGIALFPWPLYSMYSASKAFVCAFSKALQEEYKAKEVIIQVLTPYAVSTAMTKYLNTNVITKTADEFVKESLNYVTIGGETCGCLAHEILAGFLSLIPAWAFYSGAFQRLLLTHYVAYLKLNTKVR
As to the kind of experiment: Inhibition of 17β-HSD type 3 in MCF-7 cells stably expressing the isoenzyme (tritium labeled androstenedione conversion, HPLC). To be noted: MCF-7 cells expressing 17β-HSD type 3, 2 nM tritium labeled androstenedione; for inhibition at 1 µM / inhibition at 10 µM: MCF7; for inhibition at 1 µM: read-out: % Inhibition HSD3 1 μM; for inhibition at 10 µM: read-out: % Inhibition HSD3 10 μM.
Description: as §1, §2, §3, §4, §5

With `COc1cc(-c2nc3sc4c(O)cccc4c3c(=O)n2CC2CCCO2)c(Cl)c(OC)c1OC` (stereo not drawn) [No. 140, 2-(2-Chloro-3,4,5-trimethoxyphenyl)-8-hydroxy-3-(tetrahydrofuran-2-ylmethyl)-3H-benzo[4,5]thieno[2,3-d]pyrimidin-4-one], the inhibition (usually the relative decrease from the control value, in per cent) at 1 µM stood at 39.5% in assay [1] (1 μM test compound), 10.3% in assay [2] (1 μM test compound) and 8.8% in assay [3] (1 μM test compound). The inhibition at 10 µM was determined as 81% in assay [1] (10 μM test compound), 36.8% in assay [2] (10 μM test compound) and 63.5% in assay [3] (10 μM test compound).

As to `COc1cc(-c2nc3sc4c(c3c(=O)n2Cc2ccccc2)C(C)CCC4=O)cc(OC)c1OC` (stereo not drawn) [No. 684, 3-Benzyl-5-methyl-2-(3,4,5-trimethoxyphenyl)-6,7-dihydro-3H,5H-benzo[4,5]thieno[2,3-d]pyrimidin-4,8-dione], the inhibition at 1 µM in assay [1] (1 μM test compound) stood at 24.6%; in assay [2] (1 μM test compound), 9.2%; in assay [3] (1 μM test compound), 24.7%. In addition, the inhibition at 10 µM in assay [1] (10 μM test compound) is 63.3%; in assay [2] (10 μM test compound), 11%; in assay [3] (10 μM test compound) it was 10.5%.

`COc1cc(-c2nc3sc4c(O)cccc4c3c(=O)n2CC2CCCO2)c(Br)c(OC)c1OC` (stereo not drawn) [No. 133, 2-(2-Bromo-3,4,5-trimethoxyphenyl)-8-hydroxy-3-(tetrahydrofuran-2-ylmethyl)-3H-benzo[4,5]thieno[2,3-d]pyrimidin-4-one]: the inhibition at 1 µM in assay [1] (1 μM test compound) came out at 18.2%; in assay [2] (1 μM test compound), 6.8%; in assay [3] (1 μM test compound), 18.7%. The figures for the inhibition at 10 µM in assay [1] (10 μM test compound), in assay [2] (10 μM test compound) and in assay [3] (10 μM test compound) were 58.4%, 24.3% and 37.7%, respectively.

As for `COCCn1c(-c2cc(OC)c(OC)c(OC)c2)nc2sc3c(c2c1=O)CCCC3` [No. 108, 3-(2-Methoxyethyl)-2-(3,4,5-trimethoxyphenyl)-5,6,7,8-tetrahydro-3H-benzo[4,5]thieno[2,3-d]pyrimidin-4-one], the inhibition at 1 µM stood at 5.2% in assay [1] (1 μM test compound), 9.6% in assay [2] (1 μM test compound) and 0.8% in assay [3] (1 μM test compound). The inhibition at 10 µM in assay [1] (10 μM test compound) was 11%; in assay [2] (10 μM test compound) it was 7.4%; in assay [3] (10 μM test compound), 9.8%.

On to `COCc1nc2sc3c(O)cccc3c2c(=O)n1CCc1ccccc1` [No. 629], for which the “% Inhibition HSD1 1 μM” value in assay [1] (1 μM test compound) is listed as 22.4%. The “% Inhibition HSD1 10 μM” value in assay [1] (10 μM test compound) came out at 33.1%. The “% Inhibition HSD2 1 μM” value in assay [2] (1 μM test compound) was determined as 39.1%. The “% Inhibition HSD2 10 μM” value in assay [2] (10 μM test compound) turned out to be 71.7%. In assay [3] (1 μM test compound), the “% Inhibition HSD3 1 μM” value is given as 19.3%. The “% Inhibition HSD3 10 μM” value in assay [3] (10 μM test compound) came out at 35.9%.

Regarding `Cc1nc2sc3c(c2c(=O)n1-c1ccccc1)CCCC3` [No. 24, 2-Methyl-3-phenyl-5,6,7,8-tetrahydro-3H-benzo[4,5]thieno[2,3-d]pyrimidin-4-one], the inhibition at 1 µM in assay [1] (1 μM test compound) was -7.5%; in assay [2] (1 μM test compound), 4.1%; in assay [3] (1 μM test compound), 17.1%. Also, the inhibition at 10 µM was 15.4% in assay [1] (10 μM test compound), 9.7% in assay [2] (10 μM test compound) and 30.9% in assay [3] (10 μM test compound).

`CCOC(=O)C1=Cc2sc3nc(-c4ccc(OC)cc4)n(Cc4ccccc4)c(=O)c3c2CC1` [No. 15, 3-Benzyl-2-(p-methoxyphenyl)-4-oxo-3,4,5,6-tetrahydro-benzo[4,5]thieno[2,3-d]pyrimidine-7-carboxylic acid ethyl ester]: the figures for the inhibition at 1 µM in assay [1] (1 μM test compound), in assay [2] (1 μM test compound) and in assay [3] (1 μM test compound) were -9.9%, -5.5% and 18.5%, respectively. Also, the inhibition at 10 µM in assay [1] (10 μM test compound) was -6.5%; in assay [2] (10 μM test compound), 7.3%; in assay [3] (10 μM test compound) it was 61.2%.

With `CCC(C)Cn1c(-c2cc(OC)c(OC)c(OC)c2)nc2sc3c(c2c1=O)CCC(Br)C3=O` (stereo not drawn) [No. 127, 7-Bromo-3-(2-methylbutyl)-2-(3,4,5-trimethoxyphenyl)-6,7-dihydro-3H,5H-benzo[4,5]thieno[2,3-d]pyrimidine-4,8-dione], the inhibition at 1 µM in assay [1] (1 μM test compound) was 40.3%; in assay [2] (1 μM test compound) it was -0.4%; in assay [3] (1 μM test compound) it was 4.8%. Moreover, the inhibition at 10 µM in assay [1] (10 μM test compound) worked out at 91.3%; in assay [2] (10 μM test compound), 5.7%; in assay [3] (10 μM test compound), 29.3%.

The values are drawn from patent US7524853B2 (Solvay Pharmaceuticals B.V., priority 2003, dated 2009).
